Test system: 873145-292-R-J1-PDC complex spheroid viability
Experiment: Anticancer human tumor 873145-292-R-J1-PDC patient-derived renal clear cell carcinoma cell line growth inhibition [POLQ]
Settings: for IC50: curve of first compound; for viability, T/C: stronger effect = lower value
Description: Multicellular complex tumor spheroid response to Polymerase (POL) inhibitors (novobiocin, ART-558, RP6685) in combination with a variety of drugs and investigational agents in selected tumor cell lines
The POL inhibitors (novobiocin, ART-558, and RP6685) were evaluated both individually and in combination with standard of care and investigational anticancer small molecules within a complex spheroid model of solid tumors. . Complex spheroids include a stromal component modeled by human endothelial cells (HUVEC) and fibroblasts modeled by human mesenchymal stem cells (MSCs). The concentration ranges selected for each drug and investigational agent were based upon clinically achievable concentrations if the clinical Cmax of the agent was known.
Compounds. The drugs and investigational agents: novobiocin (NSC847541), ART-558 (NSC835418), RP-6685 (NSC848927), peposertib (NSC802822), ceralasertib (NSC780249), elimusertib (NSC800525), camonsertib (NSC841442), AZD-1390 (NSC803789), olaparib (NSC753686), talazoparib (NSC767125), rucaparib (NSC756644), sotorasib (NSC818433), MRTX-1133 (NSC836407), SN-38 (NSC673596), topotecan (NSC609699), epotoside (NSC141540), doxorubicin (NSC123127), gemcitabine (NSC613327), 5-fluorouracil (NSC19893), paclitaxel (NSC125973), vemurafenib (NSC761431), MSA-2 (NSC828583), SN-011 (NSC837082), adavosertib (NSC754352), prexasertib (NSC758257), carboplatin (NSC241240) and oxaliplatin (NSC266046), were obtained from the National Cancer Institute (NCI) Developmental Therapeutics Program Chemical Repository (21). The FDA-approved anticancer drug set is available from the Developmental Therapeutics Program at https://dtp.cancer.gov/organization/dscb/obtaining/. […] The stock solutions were prepared in dimethyl sulfoxide (DMSO, Sigma-Aldrich, St. Louis, MO, cat. D2650), except for the platinum compounds which were prepared in saline (Quality Biological, Gaithersburg, MD, cat. 114-055-101), at 800-fold the tested concentration and stored at -70 degrees C prior to their use. All drugs and investigational agents were tested over a range starting from a high concentration at or near the clinical Cmax and decreasing in half-log increments. If the clinical Cmax for an agent had not been determined, the highest concentration tested was 10 microM, except for SN-38, which was tested at a high concentration of 1 microM.
Cell Culture. All cells were maintained in an incubator at 37 degrees C and 5% CO2 with 95% humidity. The PDC lines were cultured according to standard operating procedures established by the NCI PDMR (https://pdmr.cancer.gov). Table 3 of the manuscript, lists the cell lines along with the number of the three cell types plated to form the mct-spheroids and media for tumor cell growth. After thawing, all PDC lines, except 997537-175-T-J1-PDC and 415267-285-R-J2-PDC, were cultured in Matrigel-coated flasks prepared with a working solution of 1X Ham's F-12 nutrient mix, without supplementation (Thermo Fisher Scientific, cat. 11765054), 100 U/mL penicillin-streptomycin (Thermo Fisher Scientific, cat. 15140122), and 2.5% Matrigel (Corning Inc., Corning, NY, cat. 354248) for the first three passages. The two PDC lines 997537-175-T-J1-PDC and 415267-285-R-J2-PDC were cultured on uncoated flasks. The 857933-349-R-J2-PDC line was cultured in 6C/Colon 1B media containing advanced DMEM/F-12 (Thermo Fisher Scientific, cat. 12634028), 10 mM HEPES (Thermo Fisher Scientific, cat. 15630080), 1X GlutaMAX supplement (Thermo Fisher Scientific, cat. 35050061), 0.1 mg/mL primocin (InvivoGen, San Diego, CA, cat. ant-pm-2), 10% defined fetal bovine serum, heat inactivated (HyClone Laboratories Inc., Logan, UT, cat. SH30070.03HI), 50% L-WRN conditioned media (ATCC, cat. CRL-3276), 1.25 mM N-Acetyl-L-cysteine (Sigma-Aldrich, cat. A9165), 10 mM nicotinamide (Sigma-Aldrich, cat. N0636), 1X B-27 supplement (Thermo Fisher Scientific, cat. 17504044), 1X N-2 supplement (Thermo Fisher Scientific, cat. […]

[1] = second compound 0.0316 µM, first compound 0.0316 µM
[2] = second compound 0.0316 µM, first compound 0.1 µM
[3] = second compound 0.1 µM, first compound 0.0316 µM
[4] = second compound 0.1 µM, first compound 0.1 µM
[5] = second compound 0.316 µM, first compound 0.0316 µM
[6] = second compound 0.316 µM, first compound 0.1 µM
[7] = second compound 1 µM, first compound 0.0316 µM
[8] = second compound 1 µM, first compound 0.1 µM
[9] = second compound 3.16 µM, first compound 0.0316 µM
[10] = second compound 3.16 µM, first compound 0.1 µM
[11] = second compound 10 µM, first compound 0.0316 µM
[12] = second compound 10 µM, first compound 0.1 µM
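Also: spheroids exposed to compounds for 7 days before viability readout.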
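For viability, T/C in this document: luminescence signal used as surrogate for viable cell content; 100% = DMSO vehicle control viability.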

## CC[C@@]1(O)C(=O)OCc2c1cc1n(c2=O)Cc2cc3c(CN(C)C)c(O)ccc3nc2-1 + COC1C(OC(N)=O)C(O)C(Oc2ccc3c(O)c(NC(=O)c4ccc(O)c(CC=C(C)C)c4)c(=O)oc3c2C)OC1(C)C
Second compound 0.0316 µM
  IC50: 94.4 nM
Second compound 0.1 µM
  IC50: > 100 nM
Second compound 0.316 µM
  IC50: > 100 nM
Second compound 1 µM
  IC50: 91.9 nM
Second compound 3.16 µM
  IC50: 95.5 nM
Second compound 10 µM
  IC50: > 100 nM
Second compound 0.0316 µM, first compound 0.000316 µM
  viability, T/C: 100%
Second compound 0.0316 µM, first compound 0.001 µM
  viability, T/C: 98.3%
Second compound 0.0316 µM, first compound 0.00316 µM
  viability, T/C: 96.2%
Second compound 0.0316 µM, first compound 0.01 µM
  viability, T/C: 90%
[1]
  viability, T/C: 91.5%
[2]
  viability, T/C: 47.6%
Second compound 0.1 µM, first compound 0.000316 µM
  viability, T/C: 112%
Second compound 0.1 µM, first compound 0.001 µM
  viability, T/C: 97.6%
Second compound 0.1 µM, first compound 0.00316 µM
  viability, T/C: 90.8%
Second compound 0.1 µM, first compound 0.01 µM
  viability, T/C: 96.3%
[3]
  viability, T/C: 80.6%
[4]
  viability, T/C: 48.9%
Second compound 0.316 µM, first compound 0.000316 µM
  viability, T/C: 104%
Second compound 0.316 µM, first compound 0.001 µM
  viability, T/C: 89.3%
Second compound 0.316 µM, first compound 0.00316 µM
  viability, T/C: 92.9%
Second compound 0.316 µM, first compound 0.01 µM
  viability, T/C: 110%
[5]
  viability, T/C: 81.5%
[6]
  viability, T/C: 53.9%
Second compound 1 µM, first compound 0.000316 µM
  viability, T/C: 98.4%
Second compound 1 µM, first compound 0.001 µM
  viability, T/C: 95.3%
Second compound 1 µM, first compound 0.00316 µM
  viability, T/C: 92.8%
Second compound 1 µM, first compound 0.01 µM
  viability, T/C: 91%
[7]
  viability, T/C: 80.3%
[8]
  viability, T/C: 47.3%
Second compound 3.16 µM, first compound 0.000316 µM
  viability, T/C: 101%
Second compound 3.16 µM, first compound 0.001 µM
  viability, T/C: 97.8%
Second compound 3.16 µM, first compound 0.00316 µM
  viability, T/C: 92.7%
Second compound 3.16 µM, first compound 0.01 µM
  viability, T/C: 90.9%
[9]
  viability, T/C: 75.1%
[10]
  viability, T/C: 48.6%
Second compound 10 µM, first compound 0.000316 µM
  viability, T/C: 104%
Second compound 10 µM, first compound 0.001 µM
  viability, T/C: 100%
Second compound 10 µM, first compound 0.00316 µM
  viability, T/C: 91.7%
Second compound 10 µM, first compound 0.01 µM
  viability, T/C: 98.6%
[11]
  viability, T/C: 71.8%
[12]
  viability, T/C: 50.7%

## Nc1ccn(C2OC(CO)C(O)C2(F)F)c(=O)n1 (centres undefined) + COC1C(OC(N)=O)C(O)C(Oc2ccc3c(O)c(NC(=O)c4ccc(O)c(CC=C(C)C)c4)c(=O)oc3c2C)OC1(C)C
Second compound 0.0316 µM
  IC50: > 10000 nM
Second compound 0.1 µM
  IC50: 1090 nM
Second compound 0.316 µM
  IC50: 243 nM
Second compound 1 µM
  IC50: 1280 nM
Second compound 3.16 µM
  IC50: 360 nM
Second compound 10 µM
  IC50: > 10000 nM
[1]
  viability, T/C: 59.6%
[2]
  viability, T/C: 46.6%
Second compound 0.0316 µM, first compound 0.316 µM
  viability, T/C: 52.2%
Second compound 0.0316 µM, first compound 1 µM
  viability, T/C: 46.5%
Second compound 0.0316 µM, first compound 3.16 µM
  viability, T/C: 54.8%
Second compound 0.0316 µM, first compound 10 µM
  viability, T/C: 50.9%
[3]
  viability, T/C: 51.2%
[4]
  viability, T/C: 57.5%
Second compound 0.1 µM, first compound 0.316 µM
  viability, T/C: 53.7%
Second compound 0.1 µM, first compound 1 µM
  viability, T/C: 44.2%
Second compound 0.1 µM, first compound 3.16 µM
  viability, T/C: 51%
Second compound 0.1 µM, first compound 10 µM
  viability, T/C: 43.5%
[5]
  viability, T/C: 60.8%
[6]
  viability, T/C: 52.9%
Second compound 0.316 µM, first compound 0.316 µM
  viability, T/C: 47.8%
Second compound 0.316 µM, first compound 1 µM
  viability, T/C: 48.3%
Second compound 0.316 µM, first compound 3.16 µM
  viability, T/C: 51.4%
Second compound 0.316 µM, first compound 10 µM
  viability, T/C: 46%
[7]
  viability, T/C: 57.8%
[8]
  viability, T/C: 54.8%
Second compound 1 µM, first compound 0.316 µM
  viability, T/C: 52.7%
Second compound 1 µM, first compound 1 µM
  viability, T/C: 48.8%
Second compound 1 µM, first compound 3.16 µM
  viability, T/C: 49.6%
Second compound 1 µM, first compound 10 µM
  viability, T/C: 48.4%
[9]
  viability, T/C: 61.7%
[10]
  viability, T/C: 60.2%
Second compound 3.16 µM, first compound 0.316 µM
  viability, T/C: 50.3%
Second compound 3.16 µM, first compound 1 µM
  viability, T/C: 43.6%
Second compound 3.16 µM, first compound 3.16 µM
  viability, T/C: 50.7%
Second compound 3.16 µM, first compound 10 µM
  viability, T/C: 52.5%
[11]
  viability, T/C: 59.2%
[12]
  viability, T/C: 52.4%
Second compound 10 µM, first compound 0.316 µM
  viability, T/C: 52.2%
Second compound 10 µM, first compound 1 µM
  viability, T/C: 45.6%
Second compound 10 µM, first compound 3.16 µM
  viability, T/C: 53.6%
Second compound 10 µM, first compound 10 µM
  viability, T/C: 53.1%

Reference: PubChem BioAssay AID1963834 (Molecular Pharmacology Branch, DTP, NCI, 2024)
